Results published in EP4692086A1, “ANTICOAGULATION REVERSAL AGENT, AND PREPARATION METHOD THEREFOR AND USE THEREOF” (Shaanxi Micot Pharmaceutical Technology Co., Ltd., priority 2023, dated 2024).

What was measured:
Type in all cases: in vivo, SD rats
warfarin-induced rats [1] = assay: Hepatic laceration hemorrhage model, antagonizing warfarin; conditions: for Hepatic Laceration Bleeding Loss: jugular vein injection, bleeding loss over 30 min; for Inhibition Rate: hepatic laceration bleeding loss, vs Vehicle (warfarin)
Procedure: Hepatic laceration hemorrhage model: In all groups except for Control group and Compound 1 20 mg/kg+N.S. control group, SD rats were administered warfarin by oral gavage once daily for 3 consecutive days. 30 min after the final administration, the rats were injected with 10% chloral hydrate via intraperitoneal injection. The anaesthetized animals were placed on an electric heating blanket preheated to 37°C. Jugular vein was isolated and cannulated within 30 min. Aspirin was administered and 30 min later, test substances were injected via the jugular vein. 5 min after injection, the abdominal cavity was opened, and 3 standard incisions, each with a length of 1 cm and a depth of 2 mm, were made on the liver. Blood flowing from the liver was absorbed with pre-weighed dry cotton, and bleeding loss (BL) over 30 min was recorded.

warfarin-induced rats [2] = assay: Tail transection hemorrhage model, antagonizing warfarin (bleeding loss and WBCT); conditions: for Tail Transection Bleeding Loss: jugular vein injection, bleeding loss over 15 min
Procedure: Tail transection hemorrhage model: In all groups except for Control group and Compound 1 20 mg/kg+N.S. control group, SD rats were administered warfarin by oral gavage once daily for 3 consecutive days. 30 min after the final administration, the rats were injected with 10% chloral hydrate via intraperitoneal injection. The anaesthetized animals were placed on an electric heating blanket preheated to 37°C. Jugular vein was isolated and cannulated within 30 min. Normal saline or drug was injected via the jugular vein. 5 min after injection, a transection was made 5 mm away from the tip of the rat's tail. Bleeding loss (BL) over 15 min was recorded. At the end of the experiment, blood was collected from the abdominal cavity and WBCT was measured. Temperatures including room temperature and water bath temperature were strictly controlled throughout the experiment.

heparin-induced rats [3] = assay: Tail transection hemorrhage model, antagonizing heparin; conditions: bleeding loss over 15 min
Procedure: (§1) Tail transection hemorrhage model: […] The anaesthetized animals were placed on an electric heating blanket preheated to 37°C. Jugular vein was isolated and cannulated within 30 min. Normal saline or drug was injected via the jugular vein. 5 min after injection, a transection was made 5 mm away from the tip of the rat's tail. Bleeding loss (BL) over 15 min was recorded. Temperatures including room temperature and water bath temperature were strictly controlled throughout the experiment.

heparin-induced rats [4] = assay: Hepatic laceration hemorrhage model, antagonizing heparin; conditions: for Hepatic Laceration Bleeding Loss: bleeding loss over 30 min
enoxaparin-induced rats [5] = assay: Tail transection hemorrhage model, antagonizing enoxaparin; conditions: bleeding loss over 15 min
Procedure: as §1

enoxaparin-induced rats [6] = assay: Hepatic laceration hemorrhage model, antagonizing enoxaparin; conditions: for Hepatic Laceration Bleeding Loss: bleeding loss over 30 min; for Inhibition Rate: hepatic laceration bleeding loss, vs Vehicle (enoxaparin)
[7] = 20 mg/kg+warfarin, blood collected at the end of the experiment
[8] = 10 mg/kg+heparin, listed as compound 1
[9] = 5 mg/kg+enoxaparin, listed as compound 1
[10] = Rattus norvegicus, read-out: Inhibition Rate

N=C(N)NCCCC(N)C(=O)NCCCn1c(=O)c2c(ncn2CCCNC(=O)C(N)CCCNC(=N)N)n(CCCNC(=O)C(N)CCCNC(=N)N)c1=O (stereo not drawn) [Compound 1]
Hepatic Laceration Bleeding Loss (warfarin-induced rats [1]; 5 mg/kg+warfarin): 0.3029 ± 0.1189 g | Hepatic Laceration Bleeding Loss (warfarin-induced rats [1]; 10 mg/kg+warfarin): 0.2379 ± 0.1613 g | inhibited hepatic laceration bleeding loss (warfarin-induced rats [1]; 20 mg/kg+warfarin, compared to the Vehicle group): 72.1% | Hepatic Laceration Bleeding Loss (warfarin-induced rats [1]; 20 mg/kg+warfarin): 0.0784 ± 0.0346 g | Inhibition Rate (warfarin-induced rats [1]; 5 mg/kg+warfarin): -7.9 | Inhibition Rate (warfarin-induced rats [1]; 10 mg/kg+warfarin): 15.3 | Inhibition Rate (warfarin-induced rats [1]; 20 mg/kg+warfarin): 72.1 | WBCT (warfarin-induced rats [2]; 20 mg/kg+N.S. (no warfarin), compared to the Control group): no significant changes | WBCT (warfarin-induced rats [2]; [7]): 490 ± 99 s | WBCT (warfarin-induced rats [2]; 20 mg/kg+warfarin, blood collected at the end of the experiment, listed as compound 1): significantly shortened | Tail Transection Bleeding Loss (warfarin-induced rats [2]; 20 mg/kg+warfarin): 0.0143 ± 0.0108 g | Tail Transection Bleeding Loss (warfarin-induced rats [2]; 20 mg/kg+warfarin, listed as compound 1): significantly reduced | Tail Transection Bleeding Loss (heparin-induced rats [3]; 5 mg/kg+heparin): 38.3625 ± 12.6991 mg | Tail Transection Bleeding Loss (heparin-induced rats [3]; 10 mg/kg+heparin): 19.9375 ± 22.3215 mg | Tail Transection Bleeding Loss (heparin-induced rats [3]; [8]): significantly reduced | Tail Transection Bleeding Loss (heparin-induced rats [3]; 20 mg/kg+heparin): 12.1125 ± 6.6714 mg | Hepatic Laceration Bleeding Loss (heparin-induced rats [4]; 5 mg/kg+heparin): 0.3217 ± 0.0919 g | inhibition rate for hepatic laceration bleeding loss (heparin-induced rats [4]; 10 mg/kg compound 1 (so in the source)+heparin, compared to the Vehicle group): 88.9% | Hepatic Laceration Bleeding Loss (heparin-induced rats [4]; 10 mg/kg+heparin): 0.1794+0.0966 g | Hepatic Laceration Bleeding Loss (heparin-induced rats [4]; [8]): significantly reduced | Hepatic Laceration Bleeding Loss (heparin-induced rats [4]; 20 mg/kg+heparin): 0.0560+0.0408 g | Tail Transection Bleeding Loss (enoxaparin-induced rats [5]; 0.2 mg/kg+enoxaparin): 0.0903 ± 0.0426 g | Tail Transection Bleeding Loss (enoxaparin-induced rats [5]; 1 mg/kg+enoxaparin): 0.0302 ± 0.0147 g | Tail Transection Bleeding Loss (enoxaparin-induced rats [5]; 5 mg/kg+enoxaparin): 0.0158 ± 0.0083 g | Tail Transection Bleeding Loss (enoxaparin-induced rats [5]; [9]): superior to the 20 mg/kg PER977 group | Hepatic Laceration Bleeding Loss (enoxaparin-induced rats [6]; 0.2 mg/kg+enoxaparin): 0.5253 ± 0.2034 g | Hepatic Laceration Bleeding Loss (enoxaparin-induced rats [6]; 1 mg/kg+enoxaparin): 0.1674 ± 0.0734 g | Hepatic Laceration Bleeding Loss (enoxaparin-induced rats [6]; 1 mg/kg+enoxaparin, listed as compound 1): significantly reduced | Hepatic Laceration Bleeding Loss (enoxaparin-induced rats [6]; 5 mg/kg+enoxaparin): 0.0490 ± 0.0184 g | Hepatic Laceration Bleeding Loss (enoxaparin-induced rats [6]; [9]): significantly reduced | Inhibition Rate (enoxaparin-induced rats [6]; 0.2 mg/kg+enoxaparin): -17.1% | Inhibition Rate (enoxaparin-induced rats [6]; 1 mg/kg+enoxaparin): 62.7% | Inhibition Rate (enoxaparin-induced rats [6]; 5 mg/kg+enoxaparin): 89.1%

N=C(N)NCCC[C@H](N)C(=O)NCCCN1CCN(CCCNC(=O)[C@@H](N)CCCNC(=N)N)CC1 [PER977, diarginine piperazine, reference compound]
Hepatic Laceration Bleeding Loss (warfarin-induced rats [1]; 20 mg/kg+warfarin): 0.0874 ± 0.0292 g | inhibition at 20 mg/kg (warfarin-induced rats [1]; [10]): 68.9% | WBCT (warfarin-induced rats [2]; [7]): 471 ± 101 s | Tail Transection Bleeding Loss (warfarin-induced rats [2]; 20 mg/kg+warfarin): 0.0276 ± 0.0123 g | Tail Transection Bleeding Loss (heparin-induced rats [3]; 20 mg/kg+heparin): 17.9000 ± 11.6004 mg | Hepatic Laceration Bleeding Loss (heparin-induced rats [4]; 20 mg/kg+heparin): 0.0511 ± 0.0444 g | Tail Transection Bleeding Loss (enoxaparin-induced rats [5]; 20 mg/kg+enoxaparin): 0.0228 ± 0.0155 g | Hepatic Laceration Bleeding Loss (enoxaparin-induced rats [6]; 20 mg/kg+enoxaparin): 0.0420 ± 0.0244 g | inhibition at 20 mg/kg (enoxaparin-induced rats [6]; [10]): 90.6%
